For test [1], the system named is endogenous NAMPT in U2OS cells. As to the kind of experiment: Cellular NAD+ modulation assay (NAD/NADH-Glo, U2OS cells). In kind it is cell-based. Particulars: Homo sapiens; for maximal fold induction: read-out: Cellular Emax. The procedure, abridged: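 Endogenous NAMPT stimulation in U2OS cells treated with compound dilution series for 24 h at 37 °C. Cells lysed with DTAB base, acid-treated 15 min at 60 °C, neutralized, NAD+ read by NAD/NADH-Glo luminescence after 40 min at room temperature. EC50 and Emax (fold over DMSO) derived.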

The target in test [2] is T1, human enzyme NAMPT (full length) (Homo sapiens, UniProt P43490).
T1 construct: human enzyme NAMPT (full length)
The test can be described thus: NMN fluorescence biochemical assay (stimulation of NMN synthesis by NAMPT). To be noted: for EC50: concentration giving half-maximal activation, read-out: Enzymatic EC50; for Enzymatic Emax: fold change of maximal activation compared to DMSO. The procedure, abridged:
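Full-length human NAMPT (100 nM) was preincubated 15 min at 37 °C with compound in 50 mM Tris-HCl pH 7.5, 10 mM MgCl2, 2 mM DTT, then reacted 1 h at 37 °C with 50 μM NAM, 100 μM PRPP, 4 mM ATP (stated solution concentrations). NMN was derivatised with acetophenone/KOH then formic acid and read at Ex/Em 382/445 nm; EC50 and Emax (fold over DMSO) reported.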

Where [3] appears, read: 24 hours incubation, cellular NAD+.
Where [4] appears, read: NMN fluorescence assay, purified human NAMPT 100 nM.
[5] abbreviates: 24 hours incubation with compound.
Setting [6] is: NMN synthesis by purified human NAMPT (100 nM).

The results in this text go back to US20260078130A1, “NAMPT MODULATORS, PREPARATIONS, AND USES THEREOF” (SIRONAX LTD., priority 2022, published 2026).

For orientation: EC50 means the concentration at which the effect is half-maximal.

Read-outs that look alike come from different tables or passages of the source.

T1 sequence (P43490 whole entry): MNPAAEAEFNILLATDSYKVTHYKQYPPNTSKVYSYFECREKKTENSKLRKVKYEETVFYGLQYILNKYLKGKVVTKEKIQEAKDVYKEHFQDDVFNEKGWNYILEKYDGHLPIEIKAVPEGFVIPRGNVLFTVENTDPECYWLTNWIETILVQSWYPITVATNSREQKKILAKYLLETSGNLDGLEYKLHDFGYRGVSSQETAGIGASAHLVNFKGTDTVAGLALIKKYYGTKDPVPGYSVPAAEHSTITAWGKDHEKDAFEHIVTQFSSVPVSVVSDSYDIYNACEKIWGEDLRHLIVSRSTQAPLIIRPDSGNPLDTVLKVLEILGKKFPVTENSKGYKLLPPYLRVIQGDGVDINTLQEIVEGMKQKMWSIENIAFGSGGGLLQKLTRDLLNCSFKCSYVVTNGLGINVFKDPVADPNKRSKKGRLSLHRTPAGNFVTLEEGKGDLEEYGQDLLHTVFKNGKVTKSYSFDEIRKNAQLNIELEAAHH

Take `Cn1ncc(Cl)c1C[C@@H]1c2ccccc2C(=O)N1C[C@H]1C[C@]2(CNC(=O)O2)C1` [Compound 405, (2s,4S)-2-(((R)-1-((4-chloro-1-methyl-1H-pyrazol-5-yl)methyl)-3-oxoisoindolin-2-yl)methyl)-5-oxa-7-azaspiro[3.4]octan-6-one]: the values for the EC50 in test [1] (setting [3]) and in test [2] (setting [4]) were 5000 to 50000 nM and 500 to 5000 nM, respectively. The maximal fold induction in test [1] (setting [3]) fell in the range of 1.2 to 1.5. The “Enzymatic Emax” value in test [2] is “C (2≥C)”.

In the case of `CC1c2cc(C3CC3)ccc2C(=O)N1Cc1ccc2[nH]c(=O)oc2c1` (stereo not shown) [Compound 125, 6-((5-cyclopropyl-3-methyl-1-oxoisoindolin-2-yl)methyl)benzo[d]oxazol-2(3H)-one], in test [1] (setting [5]), the EC50 was in the range of 500 to 5000 nM and the maximal fold induction was greater than 1.5. Also, the EC50 in test [2] (setting [6]) is no less than 5000 nM. In test [2], the “Enzymatic Emax” value was “A (A>3)”.

`Cc1cccc2c1C(=O)N(CC1CC3(CNC(=O)O3)C1)C2Cc1c(Cl)cnn1C` (stereo not shown) [Compound 460, 2-((1-((4-chloro-1-methyl-1H-pyrazol-5-yl)methyl)-4-methyl-3-oxoisoindolin-2-yl)methyl)-5-oxa-7-azaspiro[3.4]octan-6-one]: the EC50 in test [1] (setting [3]) and in test [2] (setting [4]) was less than 500 nM throughout. Further, in test [1] (setting [3]), the maximal fold induction is greater than 1.5. Moreover, the “Enzymatic Emax” value in test [2] is “B (3≥B>2)”.

With `O=C1c2ccccc2C(Cc2ncccc2Br)N1C/C(F)=C/c1c[nH]nn1` (stereo not shown) [Compound 314, (Z)-3-((3-bromopyridin-2-yl)methyl)-2-(2-fluoro-3-(1H-1,2,3-triazol-4-yl)allyl)isoindolin-1-one], the EC50 in test [1] (setting [5]) and in test [2] (setting [6]) was less than 500 nM each time. Also, the maximal fold induction in test [1] (setting [5]) was greater than 1.5. For the same molecule, the “Enzymatic Emax” value in test [2] was “B (3≥B>2)”.

Take `Cn1ncc(Cl)c1CC1c2ccc(F)cc2C(=O)N1CC1CC2(CNC(=O)O2)C1` (stereo not shown) [Compound 310, 2-((1-((4-chloro-1-methyl-1H-pyrazol-5-yl)methyl)-5-fluoro-3-oxoisoindolin-2-yl)methyl)-5-oxa-7-azaspiro[3.4]octan-6-one]: in test [1] (setting [5]), the EC50 was less than 500 nM and the maximal fold induction is greater than 1.5. In test [2] (setting [6]), the EC50 fell in the range of 500 to 5000 nM. Also, the “Enzymatic Emax” value in test [2] was “B (3≥B>2)”.

`Cc1noc2cc(CN3C(=O)c4ccccc4C3Cc3c(Cl)cnn3C)ccc12` (stereo not shown) [Compound 594, 3-((4-chloro-1-methyl-1H-pyrazol-5-yl)methyl)-2-((3-methylbenzo[d]isoxazol-6-yl)methyl)isoindolin-1-one]: in test [1] (setting [3]), the EC50 is less than 500 nM and the maximal fold induction was 1.2 to 1.5. In addition, the EC50 in test [2] (setting [4]) was no less than 5000 nM. In addition, the “Enzymatic Emax” value in test [2] was “B (3≥B>2)”.

Consider `Cc1ccc2c(c1)C(=O)N(Cc1ccc(O)cc1)C2=O` [Compound 14, 2-(4-hydroxybenzyl)-5-methylisoindoline-1,3-dione], for which, in test [1] (setting [5]), the EC50 was in the range of 500 to 5000 nM and the maximal fold induction was 1.2 to 1.5. Also, the EC50 in test [2] (setting [6]) lay in the range of 500 to 5000 nM. Moreover, the “Enzymatic Emax” value in test [2] was “B (3≥B>2)”.

With `O=c1[nH]c2ccc(Cn3c(=O)c4ccccc4n3Cc3ccccc3C(F)(F)F)cc2o1` [Compound 141, 6-((3-oxo-1-(2-(trifluoromethyl)benzyl)-1,3-dihydro-2H-indazol-2-yl)methyl)benzo[d]oxazol-2(3H)-one], in test [1] (setting [5]), the EC50 is 500 to 5000 nM and the maximal fold induction was greater than 1.5. Besides, the EC50 in test [2] (setting [6]) is 500 to 5000 nM. Further, the “Enzymatic Emax” value in test [2] is “B (3≥B>2)”.

For `Cc1cccc(CC2c3ccccc3C(=O)N2Cc2ccc3[nH]c(=O)oc3c2)n1` (stereo not shown) [Compound 158, 6-((1-((6-methylpyridin-2-yl)methyl)-3-oxoisoindolin-2-yl)methyl)benzo[d]oxazol-2(3H)-one], in test [1] (setting [5]), the EC50 was in the range of 500 to 5000 nM and the maximal fold induction was greater than 1.5. In addition, in test [2] (setting [6]), the EC50 was no less than 5000 nM. For the same molecule, in test [2], the “Enzymatic Emax” value is reported as “A (A>3)”.

As for `O=C1c2ccccc2C(Cc2ccccc2OC(F)F)N1Cc1ccc2[nH]c(=O)oc2c1` (stereo not shown) [Compound 210, 6-((1-(2-(difluoromethoxy)benzyl)-3-oxoisoindolin-2-yl)methyl)benzo[d]oxazol-2(3H)-one], in test [1] (setting [5]), the EC50 was in the range of 500 to 5000 nM and the maximal fold induction was greater than 1.5. In addition, in test [2] (setting [6]), the EC50 fell in the range of 500 to 5000 nM. Further, the “Enzymatic Emax” value in test [2] was “A (A>3)”.

With `CN(C)CCOc1nn(C)c(CC2c3ccccc3C(=O)N2CC2CC3(CNC(=O)O3)C2)c1Cl` (stereo not shown) [Compound 523, 2-((1-((4-chloro-3-(2-(dimethylamino)ethoxy)-1-methyl-1H-pyrazol-5-yl)methyl)-3-oxoisoindolin-2-yl)methyl)-5-oxa-7-azaspiro[3.4]octan-6-one], in test [1] (setting [3]), the EC50 was 500 to 5000 nM and the maximal fold induction was greater than 1.5. Further, the EC50 in test [2] (setting [4]) is less than 500 nM. The “Enzymatic Emax” value in test [2] is recorded as “C (2≥C)”.

Turning to `CNCc1ccc2c(c1)C(=O)N(Cc1ccc3[nH]nnc3c1)C2Cc1c(Cl)cnn1C` (stereo not shown) [Compound 422, 2-((1H-benzo[d][1,2,3]triazol-5-yl)methyl)-3-((4-chloro-1-methyl-1H-pyrazol-5-yl)methyl)-6-((methylamino)methyl)isoindolin-1-one], in test [1] (setting [3]), the EC50 lay within 5000 to 50000 nM and the maximal fold induction was in the range of 1.2 to 1.5. The EC50 in test [2] (setting [4]) was no less than 5000 nM. In test [2], the “Enzymatic Emax” value was “B (3≥B>2)”.

On to `Cn1ncc(Cl)c1CC1c2ccccc2C(=O)N1Cc1c[nH]c(=O)s1` (stereo not shown) [Compound 592, 5-((1-((4-chloro-1-methyl-1H-pyrazol-5-yl)methyl)-3-oxoisoindolin-2-yl)methyl)thiazol-2(3H)-one], for which, in test [1] (setting [3]), the EC50 was less than 500 nM and the maximal fold induction was greater than 1.5. Moreover, in test [2] (setting [4]), the EC50 is less than 500 nM. Further, the “Enzymatic Emax” value in test [2] is reported as “A (A>3)”.

Consider `COc1ccc(CN2C(=O)c3ccccc3C2Cc2c(C#N)ccnc2C#N)cc1` (stereo not shown) [Compound 590, 3-((2-(4-methoxybenzyl)-3-oxoisoindolin-1-yl)methyl)pyridine-2,4-dicarbonitrile], for which, in test [1] (setting [3]), the EC50 lay in the range of 500 to 5000 nM and the maximal fold induction is 1.2 to 1.5. The EC50 in test [2] (setting [4]) is 500 to 5000 nM. In addition, the “Enzymatic Emax” value in test [2] was “B (3≥B>2)”.

As for `Cn1nc(C2CNC2)c(Cl)c1CC1c2ccccc2C(=O)N1Cc1ccc2[nH]nnc2c1` (stereo not shown) [Compound 438, 2-((1H-benzo[d][1,2,3]triazol-5-yl)methyl)-3-((3-(azetidin-3-yl)-4-chloro-1-methyl-1H-pyrazol-5-yl)methyl)isoindolin-1-one], in test [1] (setting [3]), the EC50 was 500 to 5000 nM and the maximal fold induction is greater than 1.5. The EC50 in test [2] (setting [4]) was less than 500 nM. The “Enzymatic Emax” value in test [2] is “B (3≥B>2)”.

On to `Cn1ncc(Cl)c1CC1c2ccccc2C(=O)N1Cc1n[nH]c(=O)o1` (stereo not shown) [Compound 632, 5-((1-((4-chloro-1-methyl-1H-pyrazol-5-yl)methyl)-3-oxoisoindolin-2-yl)methyl)-1,3,4-oxadiazol-2(3H)-one], for which the results for the EC50 in test [1] (setting [3]) and in test [2] (setting [4]) were 500 to 5000 nM and no less than 5000 nM, respectively. In test [1] (setting [3]), the maximal fold induction was greater than 1.5. Also, the “Enzymatic Emax” value in test [2] is recorded as “B (3≥B>2)”.

Regarding `O=c1[nH]c2ccc(CN3Cc4ccccc4S3(=O)=O)cc2o1` [Compound 9, 6-((1,1-dioxidobenzo[d]isothiazol-2(3H)-yl)methyl)benzo[d]oxazol-2(3H)-one], in test [1] (setting [5]), the EC50 fell in the range of 500 to 5000 nM and the maximal fold induction is greater than 1.5. The EC50 in test [2] (setting [6]) lay in the range of 500 to 5000 nM. Also, the “Enzymatic Emax” value in test [2] is on record as “B (3≥B>2)”.

As to `O=C1c2ccccc2C(Cc2ncccc2Br)N1C/C=C/c1c[nH]nn1` (stereo not shown) [Compound 328, (E)-2-(3-(1H-1,2,3-triazol-4-yl)allyl)-3-((3-bromopyridin-2-yl)methyl)isoindolin-1-one], in test [1] (setting [3]), the EC50 was less than 500 nM and the maximal fold induction was greater than 1.5. In addition, in test [2] (setting [4]), the EC50 was less than 500 nM. Moreover, the “Enzymatic Emax” value in test [2] is “B (3≥B>2)”.

In the case of `Cn1ncc(Cl)c1CC1c2ccccc2C(=O)N1Cc1cc(=O)[nH]o1` (stereo not shown) [Compound 602, 5-((1-((4-chloro-1-methyl-1H-pyrazol-5-yl)methyl)-3-oxoisoindolin-2-yl)methyl)isoxazol-3(2H)-one], the EC50 in test [1] (setting [3]) is 500 to 5000 nM; in test [2] (setting [4]) it was no less than 5000 nM. Besides, the maximal fold induction in test [1] (setting [3]) was greater than 1.5. Besides, the “Enzymatic Emax” value in test [2] is “B (3≥B>2)”.

Regarding `O=C1c2ccccc2C(Cc2ncccc2F)N1Cc1ccc2[nH]c(=O)oc2c1` (stereo not shown) [Compound 214, 6-((1-((3-fluoropyridin-2-yl)methyl)-3-oxoisoindolin-2-yl)methyl)benzo[d]oxazol-2(3H)-one], in test [1] (setting [5]), the EC50 is less than 500 nM and the maximal fold induction is greater than 1.5. Also, in test [2] (setting [6]), the EC50 was in the range of 500 to 5000 nM. The “Enzymatic Emax” value in test [2] was “A (A>3)”.

In the case of `O=C1c2ccc(Br)cc2CN1Cc1ccc(O)cc1` [Compound 20, 5-bromo-2-(4-hydroxybenzyl) isoindolin-1-one], in test [1] (setting [5]), the EC50 lay in the range of 500 to 5000 nM and the maximal fold induction is greater than 1.5. Further, the EC50 in test [2] (setting [6]) was 500 to 5000 nM. Besides, the “Enzymatic Emax” value in test [2] is recorded as “A (A>3)”.

As to `CC1c2cc(CN3CCOCC3)ccc2C(=O)N1Cc1ccc2[nH]c(=O)oc2c1` (stereo not shown) [Compound 143, 6-((3-methyl-5-(morpholinomethyl)-1-oxoisoindolin-2-yl)methyl)benzo[d]oxazol-2(3H)-one], in test [1] (setting [5]), the EC50 is 500 to 5000 nM and the maximal fold induction is greater than 1.5. Further, in test [2] (setting [6]), the EC50 is no less than 5000 nM. Besides, the “Enzymatic Emax” value in test [2] was “A (A>3)”.
